From the supplement of paper PMC10307832

Columns and labels:
Assay in all cases: relative viability (nuclei count vs DMSO), 5 days (fraction); higher = more cells survive
[1] = compound: COc1cc2nc(N3CCCN(C)CC3)nc(NC3CCN(Cc4ccccc4)CC3)c2cc1OC + Cc1cc(Nc2cc(N3CCN(C)CC3)nc(Sc3ccc(NC(=O)C4CC4)cc3)n2)n[nH]1 [Tozasertib] (partner 0.1 µM)
In short: (§1)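 Each reported value is a median over duplicate plates. It expresses relative viability: treated-well nuclei count divided by vehicle-well nuclei count. Lung cancer cell lines in 1536-well plates were dosed by pin tool a day after seeding, alone with one drug or with a fixed anchor-drug dose plus five library-drug doses (not always all listed) in √10 steps, and nuclei were counted after 5 days.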

[2] = compound: Cc1cc([C@@H](C)Nc2ccccc2C(=O)O)c2nc(N3CCOCC3)cc(=O)n2c1 [AZD6482] + CS(=O)(=O)CCNCc1ccc(-c2ccc3ncnc(Nc4ccc(OCc5cccc(F)c5)c(Cl)c4)c3c2)o1 [Lapatinib] (partner 2 µM)
In short: as §1

[3] = compound: Cc1cc([C@@H](C)Nc2ccccc2C(=O)O)c2nc(N3CCOCC3)cc(=O)n2c1 [AZD6482] + CC(C)C[C@H](NC(=O)[C@H](Cc1ccccc1)NC(=O)c1cnccn1)B(O)O [Bortezomib] (partner 0.002 µM)
In short: as §1

[4] = compound: COc1cc2nc(N3CCCN(C)CC3)nc(NC3CCN(Cc4ccccc4)CC3)c2cc1OC + N=C(N)NC(=N)NCCc1ccccc1 [Phenformin] (partner 250 µM)
In short: as §1

Cell Line	relative viability ([1]; first compound 0.2 µM)	relative viability ([1]; first compound 0.6325 µM)	relative viability ([1]; first compound 2 µM)	relative viability ([1]; first compound 6.325 µM)	relative viability ([2]; first compound 0.08 µM)	relative viability ([2]; first compound 0.253 µM)	relative viability ([2]; first compound 0.8 µM)	relative viability ([2]; first compound 2.53 µM)	relative viability ([2]; first compound 8 µM)	relative viability ([3]; first compound 0.08 µM)	relative viability ([3]; first compound 0.253 µM)	relative viability ([3]; first compound 0.8 µM)	relative viability ([3]; first compound 2.53 µM)	relative viability ([3]; first compound 8 µM)	relative viability ([4]; first compound 0.2 µM)	relative viability ([4]; first compound 0.6325 µM)	relative viability ([4]; first compound 2 µM)	relative viability ([4]; first compound 6.325 µM)
HCC-827	0.406	0.45	0.374	0.423	0.164	0.174	0.196	0.177	0.177	0.991	1.1	1.09	0.872	0.836	0.405	0.431	0.294	0.402
HOP-62	0.406	0.371	0.401	0.441	1.06	0.856	1.32	0.827	1.1	0.795	1.12	0.752	0.939	1.18	0.684	0.629	0.721	0.641
LC-2-ad	0.493	0.436	0.551	0.47	1.06	0.553	1.1	0.638	0.918	1.07	0.962	1.1	0.754	0.926	0.528	0.568	0.644	0.521
LCLC-97TM1	0.185	0.423	0.311	0.256	1.04	1.01	1.28	0.271	0.462	0.499	0.38	0.435	–	0.351	0.432	0.401	0.503	0.465
LOU-NH91	0.67	0.703	0.649	0.769	0.626	0.752	0.681	0.501	0.494	0.453	0.473	0.519	0.475	0.6	0.643	0.803	0.506	0.674
LU99A	0.238	0.255	0.283	0.262	0.972	0.881	0.938	0.751	0.866	1.07	1.16	1.11	0.875	0.823	0.846	0.827	0.691	0.857
LXF-289	0.184	0.195	0.205	0.211	0.924	0.913	0.892	0.821	0.937	0.972	1	1.05	0.845	0.947	0.511	0.507	0.527	0.525
NCI-H23	0.423	0.385	0.481	0.337	1.03	0.848	1.32	0.644	0.855	0.958	0.861	1.29	0.621	0.861	0.743	0.717	0.936	0.794
NCI-H322M	0.481	0.451	0.417	0.437	0.53	0.441	0.561	0.357	0.495	1.18	1.22	1.13	0.795	0.871	0.669	0.743	0.748	0.762
NCI-H460	0.535	0.399	0.361	0.625	0.869	0.796	1.17	0.585	0.758	0.957	0.956	1.17	0.685	0.958	0.501	0.492	0.478	0.484
NCI-H520	0.405	0.405	0.437	0.507	0.644	0.397	0.619	–	0.263	0.489	0.223	0.481	–	0.306	0.558	0.7	0.499	0.252
NCI-H596	0.961	1.1	0.91	0.893	0.722	0.953	1.06	0.873	0.853	0.988	0.95	0.946	1.01	0.985	0.724	0.756	0.696	0.798
NCI-H647	0.486	0.272	0.366	0.207	0.843	–	0.804	0.524	0.744	0.784	–	0.777	0.582	0.771	0.586	0.727	0.673	0.366
NCI-H650	0.773	0.714	0.793	0.709	0.999	–	0.948	0.454	0.534	0.895	–	0.927	0.424	0.57	0.454	0.459	0.466	0.427
NCI-H661	0.377	0.342	0.344	0.363	0.531	0.455	0.393	–	0.369	0.71	0.608	0.723	–	0.622	0.295	0.296	0.27	0.266
NCI-H727	0.655	0.689	0.828	0.584	0.659	0.843	0.951	–	0.667	0.908	0.868	1.06	–	0.887	0.478	0.415	0.447	0.348
NCI-H838	0.28	0.27	0.286	0.246	0.776	0.783	0.894	0.482	0.6	0.629	0.498	0.793	0.602	0.622	0.769	0.776	0.576	0.502
NCI-H1355	0.565	0.539	0.582	0.546	0.694	0.903	0.956	0.678	0.717	1.06	1.06	1.16	0.874	1.03	0.485	0.46	0.508	0.463

Cell Line	relative viability ([1]; first compound 0.2 µM)	relative viability ([1]; first compound 0.6325 µM)	relative viability ([1]; first compound 2 µM)	relative viability ([1]; first compound 6.325 µM)	relative viability ([2]; first compound 0.08 µM)	relative viability ([2]; first compound 0.253 µM)	relative viability ([2]; first compound 0.8 µM)	relative viability ([2]; first compound 2.53 µM)	relative viability ([2]; first compound 8 µM)	relative viability ([3]; first compound 0.08 µM)	relative viability ([3]; first compound 0.253 µM)	relative viability ([3]; first compound 0.8 µM)	relative viability ([3]; first compound 2.53 µM)	relative viability ([3]; first compound 8 µM)	relative viability ([4]; first compound 0.2 µM)	relative viability ([4]; first compound 0.6325 µM)	relative viability ([4]; first compound 2 µM)	relative viability ([4]; first compound 6.325 µM)
NCI-H1437	0.442	0.433	0.469	0.461	0.727	0.747	0.769	0.592	0.421	0.466	0.385	0.592	0.484	0.374	0.261	0.329	0.326	0.297
NCI-H1650	0.482	0.483	0.576	0.49	0.754	–	0.688	0.602	0.681	0.192	–	0.188	0.205	0.202	0.494	0.612	0.379	0.369
NCI-H1651	0.846	0.75	1.01	0.668	0.776	0.608	0.77	0.563	0.522	0.918	0.941	0.905	0.809	0.825	0.351	0.33	0.329	0.318
NCI-H1666	0.569	0.727	0.635	0.625	0.283	0.616	0.556	0.517	0.417	0.515	0.765	0.737	0.556	0.616	0.545	0.574	0.542	0.505
NCI-H1734	0.277	0.249	0.26	0.217	0.933	1.02	1.16	0.632	0.612	0.791	0.893	0.977	0.525	0.556	0.383	0.383	0.389	0.346
NCI-H1755	0.668	0.464	0.592	0.557	0.955	0.969	1.03	0.704	0.749	0.837	0.962	0.434	0.639	0.74	0.604	0.628	0.58	0.574
NCI-H1915	0.441	0.465	0.464	0.426	0.933	0.813	1.05	0.844	1.01	0.861	0.86	1.04	0.849	1.05	0.371	0.351	0.374	0.364
NCI-H1975	0.797	0.804	0.999	0.832	0.727	0.802	0.814	0.626	0.581	0.345	0.375	0.384	0.323	0.301	0.414	0.431	0.411	0.389
NCI-H1993	0.583	0.622	0.604	0.625	0.779	0.791	–	–	0.784	0.848	0.94	–	–	0.852	0.528	0.442	0.528	0.501
NCI-H2009	0.761	0.727	0.855	0.656	1.1	1	1.04	0.579	0.815	0.985	1.04	1.04	0.601	0.783	0.471	0.447	0.56	0.385
NCI-H2023	0.368	0.301	0.46	0.109	0.729	0.74	0.798	0.424	0.422	0.984	0.742	0.874	0.623	0.679	0.424	0.414	0.498	0.272
NCI-H2085	0.884	0.895	0.971	0.612	0.42	0.407	0.457	0.366	0.372	0.824	0.659	0.766	0.393	0.458	0.776	0.743	0.786	0.641
NCI-H2087	0.228	0.269	0.292	0.304	1.22	1.12	1.43	0.864	0.98	0.904	0.912	0.831	0.661	1.04	0.413	0.439	0.48	0.393
NCI-H2126	0.818	0.874	0.868	0.826	0.635	0.644	0.636	0.519	0.49	1.12	1.09	1.1	0.851	0.786	0.493	0.601	0.538	0.472
NCI-H2228	0.254	0.311	0.265	0.257	0.834	0.994	0.971	0.662	0.715	0.754	0.986	0.91	0.849	1.13	0.271	0.298	0.224	0.141
NCI-H2347	0.568	0.604	0.743	0.64	–	0.946	0.988	0.653	0.763	0.755	0.681	0.873	0.619	0.496	0.399	0.447	0.555	0.408
NCI-H2405	0.711	0.696	0.83	0.74	0.69	–	1.12	0.627	0.483	0.77	0.895	1.06	0.73	0.661	0.425	0.444	0.421	0.371
NCI-H3122	0.429	0.413	0.543	0.536	0.965	0.993	1.03	0.893	1.11	0.87	0.989	1.1	0.803	1.09	0.403	0.363	0.401	0.331
